Patent US6890954B1, “Uses of 2-bromopalmitate in the treatment of autoimmune disease” (priority 1999, dated 2005)

What was measured:
Type in all cases: cell-based
[1] = test system: G2A,C3SFyn-HRas and G12V H-Ras; assay: Membrane localization of the two Ras constructs in COS-1 cells; settings: COS-1, 2-bromopalmitate overnight
Description: Analysis of the G2A,C3S Fyn-HRas chimera was performed according to the procedure described above. Analysis of the G12V HRas construct was according to the procedure described above, except that the samples were not immunoprecipiated, and were subjected to immunoblotting with anti-HRas antibody.
(§1) Each of these three sequences was appended onto the Fyn protein. Gαo(10)-Fyn and GAP43(10)-Fyn are chimeric constructs with the first 10 amino acids of Gαo or GAP-43, respectively, in place of the first 10 amino acids of wt Fyn. These constructs have been previously described (12,13). In addition, the H-Ras tail was fused to the C-terminus of a non-acylated Fyn mutant (G2A,C3SFyn-HRas). This construct contains full length Fyn with mutations in the N-terminal myristoylation and palmitoylation sites, but with the C-terminus of H-Ras available for prenylation and palmitoylation.
Finally, an oncogenic G12V full length H-Ras construct was tested. […] In contrast, 2-bromopalmitate had only a minimal effect on the membrane localization of the two Ras constructs, inducing a 10-20% shift from membrane to cytosol (FIGS. 3C and D). The G12V H-Ras construct migrates as a doublet on a gel. The slower migrating form represents the non-processed cytosolic form of H-Ras, and the faster migrating form represents the processed Ras, which is membrane bound.

[2] = test system: GAP43(10)-Fyn; assay: Membrane binding of GAP43(10)-Fyn chimera in COS-1 cells; settings: COS-1, 2-bromopalmitate overnight, 2 hours label
Description: (§2) For analysis of newly synthesized Fyn, cells were cultured overnight as descibed above, then starved for 1 hr in DMEM minus methionine and cysteine containing 2% dialyzed FBS, 0.5% defatted BSA with or without 100 μM 2-bromopalmitate. Cells were labeled for 5 minutes with Trans^35S-Label (ICN, Irvine, Calif.), then fractionated as described above. Gels were treated for 20 minutes with 1M salicylic acid prior to drying. The Gαo(10)-Fyn chimera was labeled for 5 min and GAP-43 Fyn chimera was labeled for 2 hours and fractionated according to the above conditions.
as §1

[3] = test system: LAT; assay: DRM (raft) localization in activated Jurkat cells, sucrose gradient: LAT; settings: 100 μM 3 hours, OKT3 activated, control 71%
Description: Isolation of Triton X-100 resistant and soluble fractions was carried out as described previously (12). Isolation of detergent resistant microdomains by sucrose gradients were carried out as follows (19): Jurkat cells (5×10^7) were treated with 2-bromopalmitate, activated with OKT3 mAb as described above, and lysed in 1 ml lysis buffer (25 mM MES pH 6.5, 150 mM NaCl, 0.5% Triton X-100, 1 mM Na3VO4) supplemented with protease inhibitors for 30 minutes at 0° C. After homogenizing 10 times with a loose fit Dounce homogenizer, lysates were mixed with 1 ml 85% sucrose in MBS (25 mM MES pH 6.5, 150 mM NaCl), and overlayered with 6 ml 30% sucrose in MBS, then with 4 ml 5% sucrose in MBS. Following centrifugation for 16 hours at 145,000 g in an SW40 rotor, 1 ml fractions were collected and analyzed by PAGE and immunoblotting with anti-Fyn, anti-LAT, or anti-Lck antibodies.
The ability of 2-bromopalmitate to inhibit localization of palmitoylated proteins to detergent resistant microdomains in activated Jurkat cells was examined next. Cells were either left untreated or treated with 100 μM 2-bromopalmitate for 3 hours, washed, resuspended in serum-free media, and the TCR was activated with OKT3 mAb. Activated cells were extracted with Triton X-100 containing buffer. […] Each fraction was analyzed by immunoblotting with specific antibodies. […]

[4] = test system: Fyn; assay: Subcellular fractionation (P100/S100) of Fyn in COS-1 cells
Description: Each 60 mm plate of Fyn transfected COS-1 cells was starved for […] in DMEM containing 2.5% FBS and 0.5% defatted BSA with or without 100 μM 2-bromopalmitate. After overnight culture at 37° C., the cells were fractionated into P100 and S100 fractions, immunoprecipitated with anti-Fyn antibody, subjected to SDS-PAGE, and immunoblotted with anti-Fyn antibody as previously described (9,12,13).
as §2
Newly synthesized Fyn becomes plasma membrane bound within 5 minutes after biosynthesis (12). The rapid membrane targeting is dependent on dual fatty acylation of Fyn with myristate and palmitate. The effect of 2-bromopalmitate on the ability of newly synthesized Fyn to localize to membranes was next examined. Transfected COS-1 cells were incubated for 12-16 hours with or without 100 μM 2-bromopalmitate. […]

[5] = test system: GαO(10)-Fyn; assay: Membrane binding of Gαo(10)-Fyn chimera in COS-1 cells; settings: COS-1, 2-bromopalmitate overnight, 5 min label
Description: as §2, §1

[6] = test system: LAT; assay: CD3-mediated tyrosine phosphorylation of LAT in Jurkat cells; settings: 100 μM 3 hours, OKT3
Description: Jurkat T cells (2×10^6−1×10^7) were centrifuged at 1,000×g for 5 minutes, rinsed with RPMI, resuspended in RPMI supplemented with 2% dialyzed FBS, 0.5% defatted BSA, and incubated with or without 100 μM 2-bromopalmitate at 8×10^5 cells/ml for 3 hours. The cells were centrifuged, washed with RPMI and resuspended in RPMI at 1×10^7−1×10^8 cells/ml. The cells were then activated with anti-CD3 OKT3 mAb (0.3 mg/ml) for 3 min at 37° C., quickly spun down, washed once with cold RPMI and once with cold STE, and lysed in RIPA Samples were solubilized in 1× sample buffer containing 5% β-mercaptoethanol and subjected to SDS-PAGE, followed by immunoblotting with anti-phosphotyrosine antibody (PY99). For analysis of specific proteins, RIPA lysates were immunoprecipitated with the specific antibodies O/N, and immunoblotted for phosphotyrosine. Alternatively, proteins were immunoprecipitated with agarose-conjugated anti phosphotyrosine antibody and blotted for the specific proteins.
In order to identify the individual proteins whose tyrosine phosphorylation is affected by 2-bromopalmitate, lysates were immunoprecipitated with a panel of specific antibodies, and immunoblotted for phosphotyrosine. Alternatively, lysates were immunoprecipitated with an antiphosphotyrosine antibody, and blotted with antibodies to specific proteins.

With `CCCCCCCCCCCCCCC(Br)C(=O)O` (stereo not shown) [2-bromopalmitate] the “shift from membrane to cytosol of the two Ras constructs” value [1] was 10-20%, the “inhibition of membrane binding of GAP43(10)-Fyn” value [2] was “to the same extent as wt Fyn” and the “LAT associated with detergent resistant microdomains” value [3] was 41%. The “newly synthesized Fyn remaining cytosolic” value ([4]; COS-1, 100 μM for 12-16 hours, 5 min 35S label, untreated 90% membrane bound) was 50%, the “steady-state Fyn fractionating in the cytosol” value ([4]; COS-1, 100 μM, Western blot, data not shown) was 50% and the “inhibition of membrane binding of GαO(10)-Fyn” value [5] was “to the same extent as wt Fyn”. The “CD3-mediated tyrosine phosphorylation of LAT” value [6] was “inhibited completely”.
